Results taken from publication doi:10.1101/2021.04.08.439011v1 (biorxiv, 2021).
Like-named read-outs stand apart in the source and are kept apart here.

Columns and labels:
ACVR1 = ACVR1 (Homo sapiens, UniProt Q04771); settings: 0.1 µM; binder
ACVR2A = ACVR2A (Homo sapiens, UniProt P27037); settings: 0.1 µM; binder
AURKB = AURKB (Homo sapiens, UniProt Q96GD4); settings: 0.1 µM; binder
CHEK1 = CHEK1 (Homo sapiens, UniProt O14757); settings: 0.1 µM; binder
CHEK2 = CHEK2 (Homo sapiens, UniProt O96017); settings: 0.1 µM; binder
CSNK2A2 = CSNK2A2 (Homo sapiens, UniProt P19784); settings: 0.1 µM; binder
DCAMKL3 = DCAMKL3 (Homo sapiens, UniProt Q9C098); settings: 0.1 µM; binder
Sequence of DCAMKL3 (Q9C098 whole entry): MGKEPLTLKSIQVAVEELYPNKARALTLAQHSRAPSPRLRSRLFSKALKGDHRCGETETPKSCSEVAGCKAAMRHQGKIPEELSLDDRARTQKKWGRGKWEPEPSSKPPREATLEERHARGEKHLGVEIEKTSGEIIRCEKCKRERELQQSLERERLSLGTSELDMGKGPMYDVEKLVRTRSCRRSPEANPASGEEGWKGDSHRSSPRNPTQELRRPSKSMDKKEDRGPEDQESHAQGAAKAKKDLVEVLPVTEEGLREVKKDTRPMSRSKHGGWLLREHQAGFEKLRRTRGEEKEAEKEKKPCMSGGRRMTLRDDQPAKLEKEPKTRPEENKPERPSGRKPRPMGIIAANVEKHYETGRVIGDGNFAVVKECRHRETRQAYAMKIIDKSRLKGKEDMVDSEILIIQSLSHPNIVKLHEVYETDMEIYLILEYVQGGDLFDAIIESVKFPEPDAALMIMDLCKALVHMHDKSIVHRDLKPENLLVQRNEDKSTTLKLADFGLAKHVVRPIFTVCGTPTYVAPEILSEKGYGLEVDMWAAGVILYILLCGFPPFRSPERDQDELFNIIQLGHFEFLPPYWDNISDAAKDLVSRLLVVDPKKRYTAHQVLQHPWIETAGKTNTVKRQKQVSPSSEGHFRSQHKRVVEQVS

EPHA4 = EPHA4 (Homo sapiens, UniProt P54764); settings: 0.1 µM; binder
EPHB4 = EPHB4 (Homo sapiens, UniProt P54760); settings: 0.1 µM; binder
ERK2 = ERK2 (Homo sapiens, UniProt P28482); settings: 0.1 µM; binder
HPK1 = HPK1 (Homo sapiens, UniProt Q92918); settings: 0.1 µM; binder
IGF1R = IGF1R (Homo sapiens, UniProt P08069); settings: 0.1 µM; binder
KIT = KIT (Homo sapiens, UniProt P10721); settings: 0.1 µM, binder
Sequence of KIT (P10721 whole entry): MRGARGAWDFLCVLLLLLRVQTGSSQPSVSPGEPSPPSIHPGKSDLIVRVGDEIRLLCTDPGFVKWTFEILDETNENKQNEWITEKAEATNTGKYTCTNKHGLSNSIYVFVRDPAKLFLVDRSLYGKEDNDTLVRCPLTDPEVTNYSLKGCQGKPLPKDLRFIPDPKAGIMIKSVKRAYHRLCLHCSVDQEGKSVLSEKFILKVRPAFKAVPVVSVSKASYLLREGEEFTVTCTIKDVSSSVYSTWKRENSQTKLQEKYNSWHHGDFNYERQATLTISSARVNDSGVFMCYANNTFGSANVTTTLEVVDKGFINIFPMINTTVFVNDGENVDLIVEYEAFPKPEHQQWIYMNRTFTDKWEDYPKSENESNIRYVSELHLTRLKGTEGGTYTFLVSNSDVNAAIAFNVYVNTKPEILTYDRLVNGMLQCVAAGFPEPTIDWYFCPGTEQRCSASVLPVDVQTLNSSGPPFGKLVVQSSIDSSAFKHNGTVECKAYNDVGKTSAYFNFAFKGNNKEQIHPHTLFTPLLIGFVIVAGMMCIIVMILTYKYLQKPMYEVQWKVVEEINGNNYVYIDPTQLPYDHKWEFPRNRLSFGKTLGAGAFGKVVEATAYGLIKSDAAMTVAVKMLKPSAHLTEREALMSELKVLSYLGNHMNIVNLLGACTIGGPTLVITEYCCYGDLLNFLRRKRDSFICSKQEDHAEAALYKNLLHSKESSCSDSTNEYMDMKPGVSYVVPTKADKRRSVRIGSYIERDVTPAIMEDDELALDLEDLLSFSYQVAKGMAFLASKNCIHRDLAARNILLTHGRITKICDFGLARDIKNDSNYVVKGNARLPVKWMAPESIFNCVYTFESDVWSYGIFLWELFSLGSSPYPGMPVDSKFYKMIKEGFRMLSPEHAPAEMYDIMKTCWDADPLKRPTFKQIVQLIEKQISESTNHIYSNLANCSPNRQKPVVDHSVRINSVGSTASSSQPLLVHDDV

LIMK2 = LIMK2 (Homo sapiens, UniProt P53671); settings: 0.1 µM; binder
MLK1 = MLK1 (Homo sapiens, UniProt P80192); settings: 0.1 µM; binder
MLK2 = MLK2 (Homo sapiens, UniProt Q02779); settings: 0.1 µM; binder
Sequence of MLK2 (Q02779 whole entry): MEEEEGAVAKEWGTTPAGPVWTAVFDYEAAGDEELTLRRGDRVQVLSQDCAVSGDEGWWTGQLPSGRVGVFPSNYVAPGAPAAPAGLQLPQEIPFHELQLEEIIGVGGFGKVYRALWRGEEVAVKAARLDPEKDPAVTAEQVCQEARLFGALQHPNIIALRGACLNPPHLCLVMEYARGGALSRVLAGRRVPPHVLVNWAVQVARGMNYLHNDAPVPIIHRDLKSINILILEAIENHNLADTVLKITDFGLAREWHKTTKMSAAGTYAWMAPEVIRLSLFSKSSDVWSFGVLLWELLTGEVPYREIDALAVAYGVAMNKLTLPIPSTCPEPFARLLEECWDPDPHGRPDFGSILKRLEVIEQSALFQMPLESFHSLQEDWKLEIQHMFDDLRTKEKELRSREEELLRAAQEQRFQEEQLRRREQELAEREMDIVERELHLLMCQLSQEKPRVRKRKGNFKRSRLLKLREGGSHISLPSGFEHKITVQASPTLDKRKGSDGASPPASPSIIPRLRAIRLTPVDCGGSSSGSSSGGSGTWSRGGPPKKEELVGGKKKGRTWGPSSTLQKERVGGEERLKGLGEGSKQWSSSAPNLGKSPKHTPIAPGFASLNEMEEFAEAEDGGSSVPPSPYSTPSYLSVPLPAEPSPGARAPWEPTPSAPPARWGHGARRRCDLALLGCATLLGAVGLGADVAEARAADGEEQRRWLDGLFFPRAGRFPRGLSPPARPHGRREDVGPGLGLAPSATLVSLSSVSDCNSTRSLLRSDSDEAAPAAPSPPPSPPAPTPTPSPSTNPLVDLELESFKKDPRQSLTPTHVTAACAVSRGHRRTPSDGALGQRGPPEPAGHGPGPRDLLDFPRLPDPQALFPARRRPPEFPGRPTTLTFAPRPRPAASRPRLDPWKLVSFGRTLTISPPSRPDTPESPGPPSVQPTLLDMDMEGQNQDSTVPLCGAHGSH

MYLK2 = MYLK2 (Homo sapiens, UniProt Q9H1R3); settings: 0.1 µM; binder
PDGFRA = PDGFRA (Homo sapiens, UniProt P16234); settings: 0.1 µM; binder
PHKG2 = PHKG2 (Homo sapiens, UniProt P15735); settings: 0.1 µM; binder
PIK3CA(H1047L) = PIK3CA(H1047L) (Homo sapiens, UniProt P42336, H1047L); settings: 0.1 µM; binder
PIK3CA(M1043I) = PIK3CA(M1043I) (Homo sapiens, UniProt P42336, M1043I); settings: 0.1 µM; binder
Sequence of PIK3CA(M1043I) (P42336 whole entry M1043I): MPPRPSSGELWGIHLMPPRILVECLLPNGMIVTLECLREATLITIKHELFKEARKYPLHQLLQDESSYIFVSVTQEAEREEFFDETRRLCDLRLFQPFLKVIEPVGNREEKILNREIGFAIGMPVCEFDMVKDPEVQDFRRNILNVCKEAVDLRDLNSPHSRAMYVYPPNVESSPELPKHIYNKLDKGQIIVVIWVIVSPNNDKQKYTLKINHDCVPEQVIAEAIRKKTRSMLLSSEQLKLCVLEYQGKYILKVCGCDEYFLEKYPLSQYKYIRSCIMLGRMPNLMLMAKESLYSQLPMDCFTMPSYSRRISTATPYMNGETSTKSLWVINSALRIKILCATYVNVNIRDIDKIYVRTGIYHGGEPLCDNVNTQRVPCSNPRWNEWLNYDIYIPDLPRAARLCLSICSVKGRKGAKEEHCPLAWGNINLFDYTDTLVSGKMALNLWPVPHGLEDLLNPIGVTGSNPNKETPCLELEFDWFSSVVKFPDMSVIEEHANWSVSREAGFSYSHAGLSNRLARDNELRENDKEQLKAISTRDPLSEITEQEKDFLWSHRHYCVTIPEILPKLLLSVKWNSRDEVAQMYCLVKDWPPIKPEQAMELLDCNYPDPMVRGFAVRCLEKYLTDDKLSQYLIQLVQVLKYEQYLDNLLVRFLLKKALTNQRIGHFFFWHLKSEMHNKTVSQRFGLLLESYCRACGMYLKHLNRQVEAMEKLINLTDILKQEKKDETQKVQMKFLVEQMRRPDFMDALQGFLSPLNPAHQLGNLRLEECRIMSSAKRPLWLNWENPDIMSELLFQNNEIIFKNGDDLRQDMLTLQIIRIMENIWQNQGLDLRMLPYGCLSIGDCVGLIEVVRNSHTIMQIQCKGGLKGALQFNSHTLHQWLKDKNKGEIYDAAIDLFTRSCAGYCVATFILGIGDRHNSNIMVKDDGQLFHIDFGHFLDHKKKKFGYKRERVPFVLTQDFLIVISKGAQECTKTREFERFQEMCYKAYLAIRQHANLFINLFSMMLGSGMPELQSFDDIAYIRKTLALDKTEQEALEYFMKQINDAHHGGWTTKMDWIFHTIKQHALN

PIM3 = PIM3 (Homo sapiens, UniProt Q86V86); settings: 0.1 µM; binder
PNCK = PNCK (Homo sapiens, UniProt Q6P2M8); settings: 0.1 µM; binder
Sequence of PNCK (Q6P2M8 whole entry): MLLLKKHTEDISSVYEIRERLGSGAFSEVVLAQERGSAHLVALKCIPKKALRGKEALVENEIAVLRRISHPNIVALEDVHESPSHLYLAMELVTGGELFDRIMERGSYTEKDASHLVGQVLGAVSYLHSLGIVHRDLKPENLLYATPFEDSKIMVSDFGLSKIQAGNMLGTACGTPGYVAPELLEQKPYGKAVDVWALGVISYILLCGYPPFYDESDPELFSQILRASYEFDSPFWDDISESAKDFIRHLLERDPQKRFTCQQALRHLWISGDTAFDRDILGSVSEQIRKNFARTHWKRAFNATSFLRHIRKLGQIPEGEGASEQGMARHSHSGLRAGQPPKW

ROCK1 = ROCK1 (Homo sapiens, UniProt Q13464); settings: 0.1 µM; binder
SGK = SGK (Homo sapiens, UniProt O00141); settings: 0.1 µM; binder
Sequence of SGK (O00141 whole entry): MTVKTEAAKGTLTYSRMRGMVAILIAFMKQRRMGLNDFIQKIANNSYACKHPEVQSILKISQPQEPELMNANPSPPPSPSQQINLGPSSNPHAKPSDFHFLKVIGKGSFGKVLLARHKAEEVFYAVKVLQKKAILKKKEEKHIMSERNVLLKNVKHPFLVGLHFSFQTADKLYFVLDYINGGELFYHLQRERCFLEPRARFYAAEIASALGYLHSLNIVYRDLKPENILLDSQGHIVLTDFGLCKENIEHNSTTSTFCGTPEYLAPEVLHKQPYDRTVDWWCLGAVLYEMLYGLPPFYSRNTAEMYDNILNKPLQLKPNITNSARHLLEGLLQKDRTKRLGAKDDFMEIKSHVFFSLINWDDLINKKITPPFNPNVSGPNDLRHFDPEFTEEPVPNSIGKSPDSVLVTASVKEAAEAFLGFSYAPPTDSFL

SNRK = SNRK (Homo sapiens, UniProt Q9NRH2); settings: 0.1 µM; binder
TNK1 = TNK1 (Homo sapiens, UniProt Q13470); settings: 0.1 µM; binder
TYRO3 = TYRO3 (Homo sapiens, UniProt Q06418); settings: 0.1 µM; binder
YANK2 = YANK2 (Homo sapiens, UniProt Q9NY57); settings: 0.1 µM; binder
ZAP70 = ZAP70 (Homo sapiens, UniProt P43403); settings: 0.1 µM; binder
Sequence of ZAP70 (P43403 whole entry): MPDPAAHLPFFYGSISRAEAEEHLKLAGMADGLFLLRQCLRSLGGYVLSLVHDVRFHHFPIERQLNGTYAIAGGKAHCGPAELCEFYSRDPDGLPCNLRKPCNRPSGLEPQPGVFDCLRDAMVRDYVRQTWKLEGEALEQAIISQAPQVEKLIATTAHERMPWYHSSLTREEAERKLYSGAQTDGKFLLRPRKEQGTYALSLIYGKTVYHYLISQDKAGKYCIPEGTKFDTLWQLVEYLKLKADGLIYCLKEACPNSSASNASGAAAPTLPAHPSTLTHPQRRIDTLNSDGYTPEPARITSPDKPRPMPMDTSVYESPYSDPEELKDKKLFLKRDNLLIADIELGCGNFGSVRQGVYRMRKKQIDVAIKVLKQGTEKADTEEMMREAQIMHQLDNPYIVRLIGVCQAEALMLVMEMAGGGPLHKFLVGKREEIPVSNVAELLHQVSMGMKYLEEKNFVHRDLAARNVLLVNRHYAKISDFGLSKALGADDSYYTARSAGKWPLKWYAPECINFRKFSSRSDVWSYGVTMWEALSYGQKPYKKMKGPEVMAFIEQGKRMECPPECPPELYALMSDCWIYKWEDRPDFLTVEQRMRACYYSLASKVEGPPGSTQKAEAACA

p38-delta = p38-delta (Homo sapiens, UniProt O15264); settings: 0.1 µM; binder

## CNc1ncc2cc(-c3ccc(-c4cccc(C)n4)cc3Cl)c(=O)n(C[C@H]3OC[C@H](N)CO3)c2n1 [compound 6, G-5555]
ACVR1
  Percent Control: 97%
ACVR2A
  Percent Control: 100%
AURKB
  Percent Control: 72%
CHEK1
  Percent Control: 100%
CHEK2
  Percent Control: 100%
CSNK2A2
  Percent Control: 96%
DCAMKL3
  Percent Control: 29%
EPHA4
  Percent Control: 100%
EPHB4
  Percent Control: 100%
ERK2
  Percent Control: 100%
HPK1
  Percent Control: 78%
IGF1R
  Percent Control: 100%
KIT
  Percent Control: 100%
KIT; autoinhibited
  Percent Control: 82%
LIMK2
  Percent Control: 100%
MLK1
  Percent Control: 100%
MLK2
  Percent Control: 100%
MYLK2
  Percent Control: 93%
PDGFRA
  Percent Control: 100%
PHKG2
  Percent Control: 100%
PIK3CA(H1047L)
  Percent Control: 100%
PIK3CA(M1043I)
  Percent Control: 76%
PIM3
  Percent Control: 100%
PNCK
  Percent Control: 97%
ROCK1
  Percent Control: 83%
SGK
  Percent Control: 99%
SNRK
  Percent Control: 84%
TNK1
  Percent Control: 100%
TYRO3
  Percent Control: 96%
YANK2
  Percent Control: 3.5%
ZAP70
  Percent Control: 100%
p38-delta
  Percent Control: 86%
